The text below walks through data of PubChem BioAssay (NCI).

Test systems include 786-0 renal; A549 NSCLC; HOP-62 NSCLC; MALME-3M melanoma; MDA-MB-231 breast; MDA-MB-435; MOLT-4 leukemia; NCI/ADR-RES ovarian; SF-295 CNS; SK-MEL-5 melanoma.
Experiment in all cases: inhibition of tumour cell growth, NCI panel, 48 h

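48-hour exposure; five concentrations; linearly interpolated endpoints. Here, GI50 denotes the concentration required for 50% inhibition of growth. TGI: total growth inhibition.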

For `CC(C)(C)c1cc(C[P+](c2ccccc2)(c2ccccc2)c2ccccc2)cc(C(C)(C)C)c1O`, the GI50 was 1.81 µM with 786-0 renal; 0.392 µM in the test on A549 NSCLC; 0.66 µM with HOP-62 NSCLC; 0.291 µM with MALME-3M melanoma; 0.473 µM in the test with MDA-MB-231 breast; 0.289 µM with MDA-MB-435. The GI50 in the test on MOLT-4 leukemia is 1.41 µM; in the test with NCI/ADR-RES ovarian, 9.12 µM; with SF-295 CNS, 0.547 µM; with SK-MEL-5 melanoma it was 0.244 µM. Also, the TGI came out at 9.73 µM with 786-0 renal; 11 µM in the test on A549 NSCLC; 3.94 µM in the test on HOP-62 NSCLC; 0.947 µM in the test with MALME-3M melanoma; 2.84 µM in the test with MDA-MB-231 breast; 1.2 µM in the test with MDA-MB-435. Besides, the TGI in the test on MOLT-4 leukemia is 5.19 µM; in the test on NCI/ADR-RES ovarian it was 33.8 µM; in the test on SF-295 CNS, 6.79 µM; in the test on SK-MEL-5 melanoma, 0.716 µM.

`COc1ccc(C)c2sc(N(Cc3cccnc3)C(=O)c3ccc(C#N)cc3)nc12`: the GI50 with 786-0 renal is 56.8 µM; with A549 NSCLC, 43.6 µM; in the test on HOP-62 NSCLC, greater than 100 µM; in the test on MALME-3M melanoma it was 52.1 µM; with MDA-MB-231 breast, 38.2 µM; in the test with MDA-MB-435 it was 35.9 µM. For the same molecule, the GI50 with MOLT-4 leukemia was 33.5 µM; in the test on NCI/ADR-RES ovarian it was 37.7 µM; in the test with SF-295 CNS it was 51.8 µM; with SK-MEL-5 melanoma, 24.4 µM. The TGI in the test with 786-0 renal, with A549 NSCLC, in the test on HOP-62 NSCLC, in the test with MALME-3M melanoma, in the test with MDA-MB-231 breast and with MDA-MB-435 was greater than 100 µM throughout. In addition, the TGI in the test on MOLT-4 leukemia is greater than 100 µM; with NCI/ADR-RES ovarian, greater than 100 µM; with SF-295 CNS, greater than 100 µM; in the test with SK-MEL-5 melanoma it was 93.8 µM.

Consider `O=C(Nc1ccc(I)cc1F)c1cc(Br)ccc1O`, for which the GI50 with 786-0 renal is 2.19 µM; with A549 NSCLC it was 2.81 µM; in the test on HOP-62 NSCLC it was 2.03 µM; with MALME-3M melanoma it was 0.379 µM; with MDA-MB-231 breast, 0.457 µM; in the test with MDA-MB-435, 0.652 µM. Besides, the GI50 in the test with MOLT-4 leukemia was 1.39 µM; in the test on NCI/ADR-RES ovarian, 0.613 µM; with SF-295 CNS, 1.73 µM; in the test on SK-MEL-5 melanoma, 0.251 µM. In addition, the TGI with 786-0 renal was 5.5 µM; in the test with A549 NSCLC, greater than 100 µM; with HOP-62 NSCLC, 7.04 µM; with MALME-3M melanoma, 2 µM; with MDA-MB-231 breast, 4.73 µM; with MDA-MB-435, 4.64 µM. For the same molecule, the TGI with MOLT-4 leukemia came to 5.6 µM; in the test with NCI/ADR-RES ovarian it was 4.5 µM; in the test on SF-295 CNS, 3.39 µM; in the test on SK-MEL-5 melanoma, 0.714 µM.

For the molecule `COc1ccc(-c2cnc(-c3ccc(OC)cc3)n2-c2cc(OC)c(OC)c(OC)c2)cc1`, the GI50 in the test on 786-0 renal is 24.2 µM; in the test on A549 NSCLC, 23.1 µM; in the test with HOP-62 NSCLC, 21.4 µM; with MALME-3M melanoma, 13.3 µM; with MDA-MB-231 breast, 18.4 µM; with MDA-MB-435, 31.2 µM. In addition, the GI50 with MOLT-4 leukemia is 0.0131 µM; in the test with NCI/ADR-RES ovarian, 30.3 µM; with SF-295 CNS it was 22.1 µM; in the test with SK-MEL-5 melanoma, 22.7 µM. Besides, the TGI in the test with 786-0 renal is 61.4 µM; in the test on A549 NSCLC it was 82.2 µM; in the test with HOP-62 NSCLC, 44.9 µM; in the test on MALME-3M melanoma, 30.6 µM; in the test with MDA-MB-231 breast, 74.3 µM; in the test with MDA-MB-435 it was greater than 100 µM. Besides, the TGI was 0.044 µM with MOLT-4 leukemia, greater than 100 µM in the test with NCI/ADR-RES ovarian, 61.1 µM with SF-295 CNS and 67.4 µM in the test with SK-MEL-5 melanoma.

`COc1ccc(C2c3ccc4ccccc4c3Oc3ncn(CCCn4ccnc4)c(=N)c32)cc1OC` (stereo not given): the GI50 was 3.1 µM with 786-0 renal; 3.75 µM with A549 NSCLC; 5.03 µM in the test on HOP-62 NSCLC; 2.12 µM in the test on MALME-3M melanoma; 2.44 µM with MDA-MB-231 breast; 1.99 µM in the test on MDA-MB-435. The GI50 in the test with MOLT-4 leukemia was 2.59 µM; in the test with NCI/ADR-RES ovarian it was 3.96 µM; in the test with SF-295 CNS, 4.35 µM; with SK-MEL-5 melanoma, 1.66 µM. The TGI worked out at 11 µM in the test on 786-0 renal; 13.8 µM in the test with A549 NSCLC; 18.4 µM in the test on HOP-62 NSCLC; 3.89 µM in the test on MALME-3M melanoma; 8.01 µM with MDA-MB-231 breast; 4.06 µM in the test on MDA-MB-435. The TGI with MOLT-4 leukemia amounted to 6.25 µM; in the test on NCI/ADR-RES ovarian, 17.4 µM; with SF-295 CNS, 19.9 µM; in the test on SK-MEL-5 melanoma, 3.11 µM.

`COc1ccc(OC)c(N2CC(O)=C(c3nc4ccccc4s3)C2=N)c1`: the GI50 in the test with 786-0 renal is greater than 100 µM; in the test on A549 NSCLC, 71.2 µM; in the test on HOP-62 NSCLC, greater than 100 µM; in the test on MALME-3M melanoma it was 16.4 µM; in the test with MDA-MB-231 breast it was 20.6 µM; with MDA-MB-435 it was 20.8 µM. Moreover, the GI50 with MOLT-4 leukemia is 4.16 µM; in the test with NCI/ADR-RES ovarian it was 88.9 µM; with SF-295 CNS it was 60.9 µM; in the test with SK-MEL-5 melanoma, 14.7 µM. The TGI in the test with 786-0 renal is greater than 100 µM; with A549 NSCLC it was greater than 100 µM; with HOP-62 NSCLC, greater than 100 µM; in the test with MALME-3M melanoma it was 82 µM; in the test with MDA-MB-231 breast, greater than 100 µM; in the test on MDA-MB-435 it was greater than 100 µM. For the same molecule, the TGI in the test with MOLT-4 leukemia was greater than 100 µM; with NCI/ADR-RES ovarian it was greater than 100 µM; in the test with SF-295 CNS, greater than 100 µM; with SK-MEL-5 melanoma, 46.6 µM.
